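The compound was tested at five concentrations on cells cultured in 96-well plates, with a 48-hour exposure period. GI50: concentration for 50% inhibition of growth.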 Calls of active or inactive are those of the source. Cut-off read from the data, not from the text of the source: active = GI50 up to about 1.1 µM and inactive = higher.
Experiments:
Assay in all cases: inhibition of tumour cell growth, NCI panel, 48 h
A498 = test system: A498
ACHN = test system: ACHN
CCRF-CEM = test system: CCRF-CEM
HCT-116 = test system: HCT-116
HCT-15 = test system: HCT-15
HOP-62 = test system: HOP-62
IGROV-1 = test system: IGROV-1
K562 = test system: K562
KM12 = test system: KM12
MOLT-4 = test system: MOLT-4
Malme-3M = test system: Malme-3M
NCI-H226 = test system: NCI-H226
RXF 393 = test system: RXF 393
SF-539 = test system: SF-539
SK-MEL-5 = test system: SK-MEL-5
SK-OV-3 = test system: SK-OV-3
SN12C = test system: SN12C
SNB-75 = test system: SNB-75
TK-10 = test system: TK-10
U-251 = test system: U-251

Compound | GI50 (A498) | GI50 (ACHN) | GI50 (CCRF-CEM) | GI50 (HCT-116) | GI50 (HCT-15) | GI50 (HOP-62) | GI50 (IGROV-1) | GI50 (K562) | GI50 (KM12) | GI50 (MOLT-4) | GI50 (Malme-3M) | GI50 (NCI-H226) | GI50 (RXF 393) | GI50 (SF-539) | GI50 (SK-MEL-5) | GI50 (SK-OV-3) | GI50 (SN12C) | GI50 (SNB-75) | GI50 (TK-10) | GI50 (U-251)
COc1cccc(-c2cc(O)c3cc(N4CCN(C)CC4)ccc3n2)c1 | 1.06 µM (active) | 5.25 µM (inactive) | 0.986 µM (active) | 0.543 µM (active) | 1.75 µM | 1.64 µM (inactive) | 3.2 µM (inactive) | 0.628 µM (active) | 1.91 µM (inactive) | 2.91 µM (inactive) | 0.641 µM (active) | 1.71 µM (inactive) | 1.18 µM (inactive) | 0.557 µM (active) | 0.454 µM (active) | 2.82 µM (inactive) | 2.92 µM (inactive) | 5.3 µM (inactive) | 9.64 µM (inactive) | 0.785 µM (active)
N=C(N)NCCCC(NCc1c2ccccc2nc2ccccc12)C(=O)O (centres undefined) | > 100 µM (inactive) | 31.5 µM (inactive) | 9.55 µM (inactive) | 11.4 µM (inactive) | 29.4 µM | 37.1 µM (inactive) | 34.7 µM (inactive) | 10.1 µM (inactive) | 21.6 µM (inactive) | 8 µM (inactive) | > 73.1 µM (inactive) | > 81.8 µM (inactive) | 57 µM (inactive) | 33 µM (inactive) | > 41.8 µM (inactive) | 53.1 µM (inactive) | 39.2 µM (inactive) | 45.2 µM (inactive) | 49.5 µM (inactive) | 47.2 µM (inactive)
CC12CCC3c4ccc(O)cc4CCC3C1C/C(=N\O)C2O (centres undefined) | > 100 µM (inactive) | > 100 µM (inactive) | 42.7 µM (inactive) | > 100 µM (inactive) | > 100 µM | > 100 µM (inactive) | > 100 µM (inactive) | > 100 µM (inactive) | 99.5 µM (inactive) | > 100 µM (inactive) | > 100 µM (inactive) | > 100 µM (inactive) | > 100 µM (inactive) | 85.1 µM (inactive) | > 100 µM (inactive) | > 100 µM (inactive) | > 100 µM (inactive) | 36.8 µM (inactive) | 45.4 µM (inactive) | > 100 µM (inactive)
CC(=O)Oc1cccc2c1C(=O)CCCC2 | > 100 µM (inactive) | > 100 µM (inactive) | > 100 µM (inactive) | > 100 µM (inactive) | > 100 µM | > 100 µM (inactive) | > 100 µM (inactive) | > 100 µM (inactive) | > 100 µM (inactive) | > 100 µM (inactive) | > 100 µM (inactive) | > 100 µM (inactive) | > 100 µM (inactive) | > 100 µM (inactive) | > 100 µM (inactive) | > 100 µM (inactive) | > 100 µM (inactive) | 0.0692 µM (active) | > 100 µM (inactive) | > 100 µM (inactive)
N#Cc1cccc(NC(=O)c2ccc(C(=O)O)c(C(=O)c3ccc(C(=O)O)c(C(=O)Nc4cccc(C#N)c4)c3)c2)c1 | > 100 µM (inactive) | – | > 100 µM (inactive) | > 100 µM (inactive) | > 100 µM | > 100 µM (inactive) | > 100 µM (inactive) | > 100 µM (inactive) | > 100 µM (inactive) | > 100 µM (inactive) | > 100 µM (inactive) | > 100 µM (inactive) | > 100 µM (inactive) | > 100 µM (inactive) | > 100 µM (inactive) | > 100 µM (inactive) | > 100 µM (inactive) | > 100 µM (inactive) | > 100 µM (inactive) | > 100 µM (inactive)
COC(=O)c1ccccc1CC(Cc1ccccc1)C(=O)OC (centres undefined) | 92.5 µM (inactive) | > 100 µM (inactive) | 87.9 µM (inactive) | 47.9 µM (inactive) | 31.3 µM | > 100 µM (inactive) | > 100 µM (inactive) | 37.7 µM (inactive) | 87.3 µM (inactive) | 27.4 µM (inactive) | 64.4 µM (inactive) | 43.1 µM (inactive) | 33.7 µM (inactive) | > 100 µM (inactive) | 22.8 µM (inactive) | 36.3 µM (inactive) | > 100 µM (inactive) | 20 µM (inactive) | 99.1 µM (inactive) | 30.8 µM (inactive)
COc1ccc(/C=C2\CCC/C(=C\c3ccc(O)c(CN4CCCCC4)c3)C2=O)cc1 | 9.57 µM (inactive) | 10.3 µM (inactive) | 4.02 µM (inactive) | 2.82 µM (inactive) | 3.52 µM | 12.4 µM (inactive) | 4.7 µM (inactive) | 3.96 µM (inactive) | 2.3 µM (inactive) | 2.59 µM (inactive) | 11.5 µM (inactive) | 6.67 µM (inactive) | 20.3 µM (inactive) | 3.08 µM (inactive) | 4.25 µM (inactive) | 22.3 µM (inactive) | 4.76 µM (inactive) | 12.6 µM (inactive) | 5.77 µM (inactive) | 4.06 µM (inactive)
CC[C@@H]1CC[C@@H]2[C@H](CC[C@]3(C)[C@@H](O)CC[C@@H]23)[C@H]1CO | > 100 µM (inactive) | > 100 µM (inactive) | > 100 µM (inactive) | 95.7 µM (inactive) | > 100 µM | > 100 µM (inactive) | > 100 µM (inactive) | 51.1 µM (inactive) | > 100 µM (inactive) | 50 µM (inactive) | > 100 µM (inactive) | > 100 µM (inactive) | > 100 µM (inactive) | > 100 µM (inactive) | 31.3 µM (inactive) | > 100 µM (inactive) | > 100 µM (inactive) | 75.9 µM (inactive) | > 100 µM (inactive) | > 100 µM (inactive)
Nc1nc(Cl)cc(NCC2(CO)CCC(Cc3ccccc3)C2)n1 (centres undefined) | 12.6 µM (inactive) | 20 µM (inactive) | 6.68 µM (inactive) | 15.5 µM (inactive) | 27.4 µM | 32.7 µM (inactive) | 26.5 µM (inactive) | 1.21 µM (inactive) | 20.2 µM (inactive) | 3.74 µM (inactive) | 10.2 µM (inactive) | 22.3 µM (inactive) | 28.5 µM (inactive) | 29 µM (inactive) | 0.671 µM (active) | 36 µM (inactive) | 52.7 µM (inactive) | 33.6 µM (inactive) | 26 µM (inactive) | 25.6 µM (inactive)
CCOC(=O)C(=Cc1cc(OC)ccc1OC)C(=O)OCC | 14.4 µM (inactive) | 11.9 µM (inactive) | 2.95 µM (inactive) | 14.4 µM (inactive) | 5.71 µM | 10.4 µM (inactive) | 23.8 µM (inactive) | 3.42 µM (inactive) | 6.53 µM (inactive) | 5.89 µM (inactive) | 10.9 µM (inactive) | 10.6 µM (inactive) | 1.83 µM (inactive) | 4.1 µM (inactive) | 4.16 µM (inactive) | 15.8 µM (inactive) | 5.27 µM (inactive) | 1.67 µM (inactive) | > 10 µM (inactive) | 4.79 µM (inactive)
CCCCN(CCCC)CC(C(=O)Nc1ccc([N+](=O)[O-])cc1[N+](=O)[O-])/C(C)=N\NC(=O)C[N+](C)(C)C (centres undefined) | 52.7 µM (inactive) | > 100 µM (inactive) | 41.8 µM (inactive) | 69.5 µM (inactive) | 46.8 µM | > 100 µM (inactive) | > 100 µM (inactive) | 28.8 µM (inactive) | > 100 µM (inactive) | > 100 µM (inactive) | > 100 µM (inactive) | > 100 µM (inactive) | 92.7 µM (inactive) | > 100 µM (inactive) | > 100 µM (inactive) | > 100 µM (inactive) | > 100 µM (inactive) | 29 µM (inactive) | > 100 µM (inactive) | > 100 µM (inactive)
O=P1(Cc2ccccc2)c2ccccc2-c2ccccc21 | 7.85 µM (inactive) | 11.2 µM (inactive) | 6.04 µM (inactive) | 2.86 µM (inactive) | 37.2 µM | 6.47 µM (inactive) | 2.33 µM (inactive) | 1.41 µM (inactive) | 1.08 µM (active) | 7.29 µM (inactive) | 2.15 µM (inactive) | 5.77 µM (inactive) | 9.42 µM (inactive) | 6.21 µM (inactive) | 1.46 µM (inactive) | 15.7 µM (inactive) | 14.2 µM (inactive) | 4.75 µM (inactive) | 5 µM (inactive) | 3.88 µM (inactive)
COc1cccc(C2c3cc4c(cc3OC(NNS(=O)(=O)c3ccc(C)cc3)C2C)OCO4)c1O (centres undefined) | 25.5 µM (inactive) | 23.6 µM (inactive) | 10 µM (inactive) | 15.3 µM (inactive) | 23.5 µM | 22.3 µM (inactive) | 26.9 µM (inactive) | 10.2 µM (inactive) | 20.3 µM (inactive) | 10.7 µM (inactive) | 23.8 µM (inactive) | 27.9 µM (inactive) | 21.3 µM (inactive) | 21.6 µM (inactive) | 20.4 µM (inactive) | 38.8 µM (inactive) | 37 µM (inactive) | 11.2 µM (inactive) | 31.8 µM (inactive) | 22.3 µM (inactive)
O=C(O)c1cc2c(s1)C(=O)c1sccc1C2=O | 17.5 µM (inactive) | 8.43 µM (inactive) | 6.84 µM (inactive) | 2.22 µM (inactive) | 3.93 µM | 6.11 µM (inactive) | 17.1 µM (inactive) | 4.03 µM (inactive) | 8.07 µM (inactive) | 8.71 µM (inactive) | 0.659 µM (active) | 19.6 µM (inactive) | 6.87 µM (inactive) | 1.95 µM (inactive) | 1.82 µM (inactive) | 20.6 µM (inactive) | 2.73 µM (inactive) | 1.82 µM (inactive) | 20.1 µM (inactive) | 5.02 µM (inactive)

Reference: ChEMBL document CHEMBL1201862, “PubChem BioAssay data set” (2004)
